Results: the Kinase Knowledgebase extract (Sharma et al. 2016)

molecular target: CDK2 (human) (UniProt P24941); assay: Enzyme Assay

IC50 [µM] | Structure (SMILES)
< 1 | Cc1[nH]c(-c2n[nH]cc2NC(=O)CC2CC2)nc1C(F)(F)F
< 1 | Cc1[nH]c(-c2n[nH]cc2NC(=O)c2c(F)cc(F)cc2F)nc1C(F)(F)F
< 1 | Cc1[nH]c(-c2n[nH]cc2NC(=O)c2ccc3c(c2)OCC3)nc1C(F)(F)F
< 1 | Cc1[nH]c(-c2n[nH]cc2NC(=O)C(C#N)C2CC2)nc1C(F)(F)F (stereo not drawn)
< 1 | Cc1[nH]c(-c2n[nH]cc2NC(=O)c2cccc3c2OCC3)nc1C(F)(F)F
< 1 | Cc1[nH]c(-c2n[nH]cc2NC(=O)c2onc3ccccc23)nc1C(F)(F)F
< 1 | COc1ccc(S(C)(=O)=O)cc1C(=O)Nc1c[nH]nc1-c1nc(C(F)(F)F)c(C)[nH]1
< 1 | Cc1[nH]c(-c2n[nH]cc2NC(=O)c2ccco2)nc1C(F)(F)F
< 1 | Cc1cc(C(=O)Nc2c[nH]nc2-c2nc(C(F)(F)F)c(C)[nH]2)no1
< 1 | CCOc1ccccc1C(=O)Nc1c[nH]nc1-c1nc(C(F)(F)F)c(C)[nH]1
< 1 | COc1ccc(F)cc1C(=O)Nc1c[nH]nc1-c1nc(C(F)(F)F)c(C)[nH]1
< 1 | COc1cccc(Cl)c1C(=O)Nc1c[nH]nc1-c1nc(C(F)(F)F)c(C)[nH]1
< 1 | Cc1[nH]c(-c2n[nH]cc2NC(=O)c2cc(CN3CCOCC3)c(C)o2)nc1C(F)(F)F
